Measurements from ChEMBL document CHEMBL2331193, “Structure-based fragment screening is demonstrated to be a practical lead discovery method for a representative G-protein-coupled receptor” (J Med Chem, 2013).

Target: Beta-1 adrenergic receptor (Homo sapiens, UniProt P08588)
Test: Binding affinity to beta1 adrenergic receptor (unknown origin)

Sequence of Beta-1 adrenergic receptor (P08588 whole entry): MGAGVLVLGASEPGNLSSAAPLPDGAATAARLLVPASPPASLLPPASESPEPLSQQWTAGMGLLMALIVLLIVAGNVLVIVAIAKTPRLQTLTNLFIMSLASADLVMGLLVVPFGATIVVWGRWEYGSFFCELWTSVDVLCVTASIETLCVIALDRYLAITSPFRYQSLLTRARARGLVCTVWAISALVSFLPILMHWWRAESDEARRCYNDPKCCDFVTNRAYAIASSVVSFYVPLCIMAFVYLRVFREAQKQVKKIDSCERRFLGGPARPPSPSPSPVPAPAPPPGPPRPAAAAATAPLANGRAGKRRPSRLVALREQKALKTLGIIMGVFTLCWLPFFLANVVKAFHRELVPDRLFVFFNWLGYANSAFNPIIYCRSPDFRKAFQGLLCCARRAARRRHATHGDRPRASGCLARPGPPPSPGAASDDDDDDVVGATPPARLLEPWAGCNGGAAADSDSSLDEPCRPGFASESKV

**Q.** `Cc1cc(N2CCNCC2)nc2ccccc12` was tested. Which Ki did it give?
**A.** Its Ki is 220 nM.
